Results taken from ChEMBL document CHEMBL3045243, “Synthesis of novel 3-chloro-1-(5H-dibenz[b,f]azepine-5yl)propan-1-one derivatives with antioxidant activity” (Med Chem Res, 2011).

Assays:
Assay type in all cases: functional
[1] = Antioxidant activity assessed as inhibition of CuSO4-induced human LDL oxidation at 10 uM at 2 hr by thibarbuteric acid assay
[2] = Antioxidant activity assessed as inhibition of CuSO4-induced human LDL oxidation at 25 uM at 2 hr by thibarbuteric acid assay
[3] = Antioxidant activity assessed as inhibition of CuSO4-induced human LDL oxidation at 25 uM at 4 hr by thibarbuteric acid assay
[4] = Antioxidant activity assessed as inhibition of linoleic acid oxidation at 10 uM up to 180 min by beta-carotene bleaching assay
[5] = Antioxidant activity assessed as inhibition of CuSO4-induced human LDL oxidation at 25 uM at 6 hr by thibarbuteric acid assay
[6] = Antioxidant activity assessed as inhibition of linoleic acid oxidation at 25 uM up to 180 min by beta-carotene bleaching assay
[7] = Antioxidant activity assessed as inhibition of CuSO4-induced human LDL oxidation at 10 uM at 6 hr by thibarbuteric acid assay
[8] = Antioxidant activity assessed as inhibition of CuSO4-induced human LDL oxidation at 10 uM at 4 hr by thibarbuteric acid assay

C[C@H](NCCC(=O)N1c2ccccc2C=Cc2ccccc21)C(=O)O
inhibition [1]: 8.92% | inhibition [2]: 9.14% | inhibition [3]: 10.1% | inhibition [4]: 10% | inhibition [5]: 12.1% | inhibition [6]: 15.4% | inhibition [7]: 11% | inhibition [8]: 9.75%

O=C(O)[C@H](Cc1ccc(O)cc1)NCCC(=O)N1c2ccccc2C=Cc2ccccc21
inhibition [1]: 70.5% | inhibition [2]: 73.6% | inhibition [3]: 79.6% | inhibition [4]: 86.8% | inhibition [5]: 83.5% | inhibition [6]: 89.1% | inhibition [7]: 78.7% | inhibition [8]: 75.5%

C[C@@H](O)[C@H](NCCC(=O)N1c2ccccc2C=Cc2ccccc21)C(=O)O
inhibition [1]: 53.5% | inhibition [2]: 56.2% | inhibition [3]: 59.6% | inhibition [4]: 53.8% | inhibition [5]: 61.6% | inhibition [6]: 76% | inhibition [7]: 57% | inhibition [8]: 55.5%

O=C(O)[C@@H]1C(O)CCN1CCC(=O)N1c2ccccc2C=Cc2ccccc21 (some centres undefined)
inhibition [1]: 69.7% | inhibition [2]: 73.7% | inhibition [3]: 75.5% | inhibition [4]: 85.4% | inhibition [5]: 77.1% | inhibition [6]: 88.4% | inhibition [7]: 75.8% | inhibition [8]: 73.5%

O=C(O)CNCCC(=O)N1c2ccccc2C=Cc2ccccc21
inhibition [1]: 6.71% | inhibition [2]: 8.24% | inhibition [3]: 7.92% | inhibition [4]: 2.96% | inhibition [5]: 10.3% | inhibition [6]: 8.8% | inhibition [7]: 10.2% | inhibition [8]: 7.95%

O=C(O)[C@@H]1CCCN1CCC(=O)N1c2ccccc2C=Cc2ccccc21
inhibition [1]: 11.9% | inhibition [2]: 13.7% | inhibition [3]: 14.1% | inhibition [4]: 4.22% | inhibition [5]: 17.4% | inhibition [6]: 6.15% | inhibition [7]: 15.4% | inhibition [8]: 13.6%

O=C(O)[C@H](Cc1c[nH]cn1)NCCC(=O)N1c2ccccc2C=Cc2ccccc21
inhibition [1]: 56.3% | inhibition [2]: 68.3% | inhibition [3]: 70.1% | inhibition [4]: 85% | inhibition [5]: 72.7% | inhibition [6]: 86.8% | inhibition [7]: 68.5% | inhibition [8]: 65.7%

O=C(O)[C@H](Cc1ccccc1)NCCC(=O)N1c2ccccc2C=Cc2ccccc21
inhibition [1]: 9.98% | inhibition [2]: 13.1% | inhibition [3]: 16.4% | inhibition [4]: 5.39% | inhibition [5]: 18.7% | inhibition [6]: 8.3% | inhibition [7]: 13.5% | inhibition [8]: 11.2%

O=C(O)[C@H](CS)NCCC(=O)N1c2ccccc2C=Cc2ccccc21
inhibition [1]: 67.3% | inhibition [2]: 70.5% | inhibition [3]: 73.4% | inhibition [4]: 82.2% | inhibition [5]: 75.8% | inhibition [6]: 84.4% | inhibition [7]: 72.5% | inhibition [8]: 69.8%

O=C(CCCl)N1c2ccccc2C=Cc2ccccc21
inhibition [1]: 5.34% | inhibition [2]: 7.43% | inhibition [3]: 9.77% | inhibition [4]: 2.89% | inhibition [5]: 12.4% | inhibition [6]: 4.24% | inhibition [7]: 8.87% | inhibition [8]: 6.87%

O=C1O[C@H]([C@@H](O)CO)C(O)=C1O
inhibition [1]: 74.3% | inhibition [2]: 79.2% | inhibition [3]: 85.2% | inhibition [4]: 87.2% | inhibition [5]: 92.2% | inhibition [6]: 90.4% | inhibition [7]: 84.4% | inhibition [8]: 81.3%

CSCC[C@H](NCCC(=O)N1c2ccccc2C=Cc2ccccc21)C(=O)O
inhibition [1]: 54.6% | inhibition [2]: 55% | inhibition [3]: 59.8% | inhibition [4]: 52.6% | inhibition [5]: 61.6% | inhibition [6]: 67.3% | inhibition [7]: 59.7% | inhibition [8]: 57.9%

O=C(O)[C@H](Cc1c[nH]c2ccccc12)NCCC(=O)N1c2ccccc2C=Cc2ccccc21
inhibition [1]: 67.9% | inhibition [2]: 71.2% | inhibition [3]: 73.2% | inhibition [4]: 83.6% | inhibition [5]: 75.2% | inhibition [6]: 85.9% | inhibition [7]: 73.5% | inhibition [8]: 70.8%
